Publication PMC8634903, “Effects of Dicyclohexyl Phthalate Exposure on PXR Activation and Lipid Homeostasis in Mice” (Environmental Health Perspectives, 2021)

Assays:
[1] = biological target: T1, rat pregnane X receptor (rPXR) (Rattus norvegicus, UniProt Q9R1A7); assay: GAL4-LBD luciferase reporter assay in LS180 cells at […] DCHP; assay type: cell-based
T1 construct: gene Nr1i2
T1 sequence (Q9R1A7 143-431 limits assumed): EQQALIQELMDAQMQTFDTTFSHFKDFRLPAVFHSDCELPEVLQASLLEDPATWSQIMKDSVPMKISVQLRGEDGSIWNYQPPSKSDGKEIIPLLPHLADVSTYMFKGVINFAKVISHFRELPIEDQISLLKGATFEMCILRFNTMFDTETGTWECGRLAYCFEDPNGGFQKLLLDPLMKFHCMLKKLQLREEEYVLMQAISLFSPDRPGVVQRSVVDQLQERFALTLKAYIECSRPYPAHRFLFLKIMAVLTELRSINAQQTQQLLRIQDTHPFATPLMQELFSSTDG

[2] = biological target: T2, pregnane X receptor (hPXR) (Homo sapiens, UniProt O75469); assay: LanthaScreen TR-FRET competitive binding assay with recombinant GST-hPXR LBD; also cell reporter assay (EC50 […])
T2 construct: gene NR1I2
T2 sequence (O75469 130-434 limits assumed): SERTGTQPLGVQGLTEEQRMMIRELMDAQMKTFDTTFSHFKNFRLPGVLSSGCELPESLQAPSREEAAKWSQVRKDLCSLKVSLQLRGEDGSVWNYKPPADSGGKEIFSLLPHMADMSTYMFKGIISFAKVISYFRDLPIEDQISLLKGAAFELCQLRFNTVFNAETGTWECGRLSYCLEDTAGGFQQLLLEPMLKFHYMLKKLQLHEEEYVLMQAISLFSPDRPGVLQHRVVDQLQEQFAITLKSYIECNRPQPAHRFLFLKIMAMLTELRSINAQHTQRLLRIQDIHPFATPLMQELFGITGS

[3] = biological target: T2, pregnane X receptor (hPXR); assay: LanthaScreen TR-FRET competitive binding assay with recombinant GST-hPXR LBD (positive control); also cell reporter assay

Compound | GAL4-LBD luciferase reporter assay in LS180 cells at 10 μM DCHP [1] | IC50 [2] | LanthaScreen TR-FRET competitive binding assay with recombinant GST-hPXR LBD (po) [3]
O=C(OC1CCCCC1)c1ccccc1C(=O)OC1CCCCC1 [DCHP, dicyclohexyl phthalate] | DCHP activated three forms of PXR including hPXR, mPXR, and rat PXR (rPXR) | 7.3 µM | 
CCCCC(CC)COC(=O)c1ccccc1C(=O)OCC(CC)CCCC (stereo not drawn) [DEHP, di(2-ethylhexyl) phthalate] |  |  | inhibition of FRET between fluorescein-labeled PXR ligand and recombinant GST-PXR LBD by DCHP and DEHP
